Assay results taken from ChEMBL document CHEMBL4028801, “A multifactorial approach to hepatobiliary transporter assessment enables improved therapeutic compound development” (Toxicol Sci, 2013).
Blank lines part the entries; values can stand above or below the compound they belong to.

Assays:
Bile salt export pump = Bile salt export pump (Homo sapiens, UniProt O95342); experiment: Inhibition of human BSEP overexpressed in Sf9 cell membrane vesicles assessed as uptake of [3H]-taurocholate in presence of ATP measured after 15 to 20 mins by membrane vesicle transport assay; type: ADME, cell-based
[1] = target: ATP-binding cassette sub-family C member 2 (Homo sapiens, UniProt Q92887); experiment: Inhibition of human MRP2 overexpressed in Sf9 cell membrane vesicles assessed as uptake of [3H]-estradiol-17beta-D-glucuronide in presence of ATP and GSH measured after 20 mins by membrane vesicle transport assay
[2] = target: ATP-binding cassette sub-family C member 3 (Homo sapiens, UniProt O15438); experiment: Inhibition of human MRP3 overexpressed in Sf9 insect cell membrane vesicles assessed as uptake of [3H]-estradiol-17beta-D-glucuronide in presence of ATP and GSH measured after 10 mins by membrane vesicle transport assay; type: ADME, cell-based
[3] = target: T1, ATP-binding cassette sub-family C member 4 (Homo sapiens, UniProt O15439); experiment: Inhibition of human MRP4 overexpressed in Sf9 cell membrane vesicles assessed as uptake of [3H]-estradiol-17beta-D-glucuronide in presence of ATP and GSH measured after 20 mins by membrane vesicle transport assay; type: ADME, cell-based
T1 sequence (O15439 whole entry): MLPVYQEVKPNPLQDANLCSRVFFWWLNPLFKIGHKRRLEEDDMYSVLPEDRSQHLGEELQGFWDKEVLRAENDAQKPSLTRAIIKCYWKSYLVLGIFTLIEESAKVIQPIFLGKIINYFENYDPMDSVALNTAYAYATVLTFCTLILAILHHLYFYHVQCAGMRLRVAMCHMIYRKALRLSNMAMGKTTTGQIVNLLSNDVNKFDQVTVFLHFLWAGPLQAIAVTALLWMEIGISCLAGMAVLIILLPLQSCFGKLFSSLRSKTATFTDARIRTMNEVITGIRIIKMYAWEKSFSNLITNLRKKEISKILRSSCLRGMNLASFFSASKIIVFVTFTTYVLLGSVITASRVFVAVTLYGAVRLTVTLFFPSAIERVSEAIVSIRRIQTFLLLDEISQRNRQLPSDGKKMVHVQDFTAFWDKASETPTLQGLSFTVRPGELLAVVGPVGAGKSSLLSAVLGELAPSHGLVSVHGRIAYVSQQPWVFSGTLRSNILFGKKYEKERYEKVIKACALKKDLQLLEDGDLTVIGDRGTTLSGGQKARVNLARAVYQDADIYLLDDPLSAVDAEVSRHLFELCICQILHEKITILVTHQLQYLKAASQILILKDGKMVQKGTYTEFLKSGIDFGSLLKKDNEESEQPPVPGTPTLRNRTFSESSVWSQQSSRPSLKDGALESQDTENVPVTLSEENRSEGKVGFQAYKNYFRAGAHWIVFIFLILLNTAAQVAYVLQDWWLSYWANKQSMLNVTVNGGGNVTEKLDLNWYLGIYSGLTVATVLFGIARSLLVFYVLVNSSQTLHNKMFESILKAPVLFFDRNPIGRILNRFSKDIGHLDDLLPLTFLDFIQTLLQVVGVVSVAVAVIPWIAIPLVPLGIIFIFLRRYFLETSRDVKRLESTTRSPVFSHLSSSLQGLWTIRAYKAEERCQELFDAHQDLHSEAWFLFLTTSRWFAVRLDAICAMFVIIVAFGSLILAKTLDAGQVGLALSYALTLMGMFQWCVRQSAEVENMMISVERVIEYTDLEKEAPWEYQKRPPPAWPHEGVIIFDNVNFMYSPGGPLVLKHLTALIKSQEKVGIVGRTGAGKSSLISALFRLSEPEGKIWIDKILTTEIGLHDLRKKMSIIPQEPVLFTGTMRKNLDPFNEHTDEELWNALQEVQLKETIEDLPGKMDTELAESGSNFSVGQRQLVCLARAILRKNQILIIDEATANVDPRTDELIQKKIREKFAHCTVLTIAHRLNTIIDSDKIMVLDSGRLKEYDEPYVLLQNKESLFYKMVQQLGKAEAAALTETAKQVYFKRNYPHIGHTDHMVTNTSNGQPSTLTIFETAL

[4] = AUC in human at 0.25 to 20 mg, po QD after 24 hrs; type: ADME, organism-based; conditions: in vivo
[5] = Drug concentration at steady state in human at 0.25 to 20 mg, po QD after 24 hrs; type: ADME, organism-based; conditions: in vivo, read-out: Css
Homo sapiens [6] = experiment: Ratio of drug concentration at steady state in human at 0.25 to 20 mg, po after 24 hrs to IC50 for human BSEP overexpressed in Sf9 insect cells; type: ADME, organism-based; conditions: in vivo
Homo sapiens [7] = experiment: Ratio of drug concentration at steady state in human at 0.25 to 20 mg, po after 24 hrs to IC50 for human MRP2 overexpressed in Sf9 insect cells; type: ADME, organism-based; conditions: in vivo
Homo sapiens [8] = experiment: Ratio of drug concentration at steady state in human at 0.25 to 20 mg, po after 24 hrs to IC50 for human MRP3 overexpressed in Sf9 insect cells; type: ADME, organism-based; conditions: in vivo
Homo sapiens [9] = experiment: Ratio of drug concentration at steady state in human at 0.25 to 20 mg, po after 24 hrs to IC50 for human MRP4 overexpressed in Sf9 insect cells; type: ADME, organism-based; conditions: in vivo
[10] = AUC in human at 50 mg, po QD after 24 hrs; type: ADME, organism-based; set-up: dose 50 mg, time < 24 hr, route oral; conditions: in vivo
[11] = Drug concentration at steady state in human at 50 mg, po QD after 24 hrs; type: ADME, organism-based; conditions: in vivo, read-out: Css
[12] = Ratio of drug concentration at steady state in human at 50 mg, po QD after 24 hrs to IC50 for human BSEP overexpressed in Sf9 insect cells; type: ADME, organism-based; conditions: in vivo
[13] = Ratio of drug concentration at steady state in human at 50 mg, po QD after 24 hrs to IC50 for human MRP2 overexpressed in Sf9 insect cells; type: ADME, organism-based; conditions: in vivo
[14] = Ratio of drug concentration at steady state in human at 50 mg, po QD after 24 hrs to IC50 for human MRP3 overexpressed in Sf9 insect cells; type: ADME, organism-based; conditions: in vivo
[15] = Ratio of drug concentration at steady state in human at 50 mg, po QD after 24 hrs to IC50 for human MRP4 overexpressed in Sf9 insect cells; type: ADME, organism-based; conditions: in vivo
[16] = AUC in human at 100 to 600 mg, po QD after 24 hrs; type: ADME, organism-based; conditions: in vivo
[17] = Drug concentration at steady state in human at 100 to 600 mg, po QD after 24 hrs; type: ADME, organism-based; conditions: in vivo, read-out: Css
[18] = Ratio of drug concentration at steady state in human at 100 to 600 mg, po QD after 24 hrs to IC50 for human BSEP overexpressed in Sf9 insect cells; type: ADME, organism-based; conditions: in vivo
[19] = AUC in human at 50 to 400 mg, po BID after 12 hrs; type: ADME, organism-based; conditions: in vivo
[20] = Drug concentration at steady state in human at 50 to 400 mg, po BID after 12 hrs; type: ADME, organism-based; conditions: in vivo, read-out: Css
[21] = Ratio of drug concentration at steady state in human at 50 to 400 mg, po BID after 12 hrs to IC50 for human BSEP overexpressed in Sf9 insect cells; type: ADME, organism-based; conditions: in vivo
[22] = AUC in human at 50 to 100 mg, po QD after 24 hrs; type: ADME, organism-based; conditions: in vivo
[23] = Drug concentration at steady state in human at 50 to 100 mg, po QD after 24 hrs; type: ADME, organism-based; conditions: in vivo, read-out: Css
Homo sapiens [24] = experiment: Ratio of drug concentration at steady state in human at 50 to 100 mg, po after 24 hrs to IC50 for human BSEP overexpressed in Sf9 insect cells; type: ADME, organism-based; conditions: in vivo
Homo sapiens [25] = experiment: Ratio of drug concentration at steady state in human at 50 to 100 mg, po after 24 hrs to IC50 for human MRP4 overexpressed in Sf9 insect cells; type: ADME, organism-based; conditions: in vivo
[26] = AUC in patient with possible depletion of intravascular volume at 25 mg, po QD after 24 hrs; type: ADME, organism-based; set-up: time < 24 hr, dose 25 mg, route oral; conditions: human, in vivo
[27] = Drug concentration at steady state in patient with possible depletion of intravascular volume at 25 mg, po QD after 24 hrs; type: ADME, organism-based; conditions: human, in vivo, read-out: Css
Homo sapiens [28] = experiment: Ratio of drug concentration at steady state in patient with possible depletion of intravascular volume at 25 mg, po QD after 24 hrs to IC50 for human BSEP overexpressed in Sf9 insect cells; type: ADME, organism-based; conditions: in vivo
Homo sapiens [29] = experiment: Ratio of drug concentration at steady state in patient with possible depletion of intravascular volume at 25 mg, po QD after 24 hrs to IC50 for human MRP4 overexpressed in Sf9 insect cells; type: ADME, organism-based; conditions: in vivo
[30] = AUC in human at 250 to 500 mg, po QD after 24 hrs; type: ADME, organism-based; conditions: in vivo

Bile salt export pump, sequence (O95342 whole entry): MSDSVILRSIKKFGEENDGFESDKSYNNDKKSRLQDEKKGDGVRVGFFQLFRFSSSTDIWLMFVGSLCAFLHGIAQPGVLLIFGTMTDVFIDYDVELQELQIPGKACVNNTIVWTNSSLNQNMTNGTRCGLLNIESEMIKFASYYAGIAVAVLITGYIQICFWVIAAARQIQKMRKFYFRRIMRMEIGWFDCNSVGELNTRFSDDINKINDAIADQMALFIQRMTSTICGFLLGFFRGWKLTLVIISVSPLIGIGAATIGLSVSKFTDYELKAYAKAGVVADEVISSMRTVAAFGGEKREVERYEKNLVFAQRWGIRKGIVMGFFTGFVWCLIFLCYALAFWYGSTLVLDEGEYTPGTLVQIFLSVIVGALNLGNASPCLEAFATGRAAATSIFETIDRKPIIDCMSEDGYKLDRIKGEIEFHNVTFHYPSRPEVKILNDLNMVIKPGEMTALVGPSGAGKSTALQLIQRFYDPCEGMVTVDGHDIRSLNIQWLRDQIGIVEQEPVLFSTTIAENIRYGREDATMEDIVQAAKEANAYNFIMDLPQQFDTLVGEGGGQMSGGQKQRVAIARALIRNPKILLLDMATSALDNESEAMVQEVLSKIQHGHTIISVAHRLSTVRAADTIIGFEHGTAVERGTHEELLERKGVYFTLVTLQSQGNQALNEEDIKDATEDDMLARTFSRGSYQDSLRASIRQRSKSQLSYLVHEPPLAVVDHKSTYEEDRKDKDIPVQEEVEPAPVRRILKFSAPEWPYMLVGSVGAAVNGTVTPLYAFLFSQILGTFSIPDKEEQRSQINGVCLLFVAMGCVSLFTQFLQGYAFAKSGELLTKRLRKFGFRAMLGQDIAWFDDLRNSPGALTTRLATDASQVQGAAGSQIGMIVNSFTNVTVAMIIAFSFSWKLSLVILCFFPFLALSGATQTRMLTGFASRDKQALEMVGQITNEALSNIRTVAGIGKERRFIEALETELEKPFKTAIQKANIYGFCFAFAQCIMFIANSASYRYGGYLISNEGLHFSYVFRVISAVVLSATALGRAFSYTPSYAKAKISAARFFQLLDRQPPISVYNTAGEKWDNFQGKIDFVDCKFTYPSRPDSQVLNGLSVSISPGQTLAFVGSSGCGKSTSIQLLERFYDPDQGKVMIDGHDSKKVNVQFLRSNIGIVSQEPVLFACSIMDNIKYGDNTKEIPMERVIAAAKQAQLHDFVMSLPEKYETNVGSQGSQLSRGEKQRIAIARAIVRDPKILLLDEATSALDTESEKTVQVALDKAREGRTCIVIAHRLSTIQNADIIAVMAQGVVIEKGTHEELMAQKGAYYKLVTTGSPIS
ATP-binding cassette sub-family C member 2, sequence (Q92887 whole entry): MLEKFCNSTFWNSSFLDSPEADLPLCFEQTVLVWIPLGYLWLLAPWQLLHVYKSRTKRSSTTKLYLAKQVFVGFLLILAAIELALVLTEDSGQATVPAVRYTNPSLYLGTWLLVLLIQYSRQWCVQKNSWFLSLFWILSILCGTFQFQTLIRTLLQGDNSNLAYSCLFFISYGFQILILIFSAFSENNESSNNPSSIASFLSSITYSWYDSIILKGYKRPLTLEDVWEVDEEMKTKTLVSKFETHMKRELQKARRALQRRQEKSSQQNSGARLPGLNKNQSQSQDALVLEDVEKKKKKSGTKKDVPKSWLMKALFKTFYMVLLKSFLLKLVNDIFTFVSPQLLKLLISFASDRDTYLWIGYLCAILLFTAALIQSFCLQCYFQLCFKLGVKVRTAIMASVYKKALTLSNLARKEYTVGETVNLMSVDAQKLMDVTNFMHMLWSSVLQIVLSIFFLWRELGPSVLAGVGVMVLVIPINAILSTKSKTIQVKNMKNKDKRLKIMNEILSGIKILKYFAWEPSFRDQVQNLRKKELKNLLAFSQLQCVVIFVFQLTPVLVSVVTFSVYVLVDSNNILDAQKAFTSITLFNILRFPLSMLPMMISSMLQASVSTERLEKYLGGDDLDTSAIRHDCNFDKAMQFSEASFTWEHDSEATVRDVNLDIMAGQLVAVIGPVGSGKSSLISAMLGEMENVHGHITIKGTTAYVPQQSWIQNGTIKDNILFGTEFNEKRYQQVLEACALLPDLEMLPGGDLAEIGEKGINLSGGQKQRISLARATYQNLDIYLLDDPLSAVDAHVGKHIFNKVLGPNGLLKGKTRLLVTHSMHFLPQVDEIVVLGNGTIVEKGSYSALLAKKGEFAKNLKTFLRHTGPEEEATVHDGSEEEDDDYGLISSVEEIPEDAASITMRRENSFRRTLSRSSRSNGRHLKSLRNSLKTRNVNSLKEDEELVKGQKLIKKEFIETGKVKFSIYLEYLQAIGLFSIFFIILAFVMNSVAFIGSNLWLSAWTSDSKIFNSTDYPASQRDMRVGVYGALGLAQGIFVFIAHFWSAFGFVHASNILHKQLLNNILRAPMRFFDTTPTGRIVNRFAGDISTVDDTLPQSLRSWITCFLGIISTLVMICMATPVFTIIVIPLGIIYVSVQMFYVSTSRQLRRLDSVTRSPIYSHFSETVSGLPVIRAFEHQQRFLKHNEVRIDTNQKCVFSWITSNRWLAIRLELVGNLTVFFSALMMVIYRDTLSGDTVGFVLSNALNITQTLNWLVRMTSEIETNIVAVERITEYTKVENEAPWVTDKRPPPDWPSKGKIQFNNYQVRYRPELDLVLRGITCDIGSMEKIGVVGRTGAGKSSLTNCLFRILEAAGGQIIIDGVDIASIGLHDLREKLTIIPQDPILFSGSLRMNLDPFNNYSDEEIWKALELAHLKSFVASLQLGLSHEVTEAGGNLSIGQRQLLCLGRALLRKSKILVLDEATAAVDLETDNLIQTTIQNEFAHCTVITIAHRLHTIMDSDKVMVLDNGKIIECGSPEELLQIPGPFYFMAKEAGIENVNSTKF
ATP-binding cassette sub-family C member 3, sequence (O15438 whole entry): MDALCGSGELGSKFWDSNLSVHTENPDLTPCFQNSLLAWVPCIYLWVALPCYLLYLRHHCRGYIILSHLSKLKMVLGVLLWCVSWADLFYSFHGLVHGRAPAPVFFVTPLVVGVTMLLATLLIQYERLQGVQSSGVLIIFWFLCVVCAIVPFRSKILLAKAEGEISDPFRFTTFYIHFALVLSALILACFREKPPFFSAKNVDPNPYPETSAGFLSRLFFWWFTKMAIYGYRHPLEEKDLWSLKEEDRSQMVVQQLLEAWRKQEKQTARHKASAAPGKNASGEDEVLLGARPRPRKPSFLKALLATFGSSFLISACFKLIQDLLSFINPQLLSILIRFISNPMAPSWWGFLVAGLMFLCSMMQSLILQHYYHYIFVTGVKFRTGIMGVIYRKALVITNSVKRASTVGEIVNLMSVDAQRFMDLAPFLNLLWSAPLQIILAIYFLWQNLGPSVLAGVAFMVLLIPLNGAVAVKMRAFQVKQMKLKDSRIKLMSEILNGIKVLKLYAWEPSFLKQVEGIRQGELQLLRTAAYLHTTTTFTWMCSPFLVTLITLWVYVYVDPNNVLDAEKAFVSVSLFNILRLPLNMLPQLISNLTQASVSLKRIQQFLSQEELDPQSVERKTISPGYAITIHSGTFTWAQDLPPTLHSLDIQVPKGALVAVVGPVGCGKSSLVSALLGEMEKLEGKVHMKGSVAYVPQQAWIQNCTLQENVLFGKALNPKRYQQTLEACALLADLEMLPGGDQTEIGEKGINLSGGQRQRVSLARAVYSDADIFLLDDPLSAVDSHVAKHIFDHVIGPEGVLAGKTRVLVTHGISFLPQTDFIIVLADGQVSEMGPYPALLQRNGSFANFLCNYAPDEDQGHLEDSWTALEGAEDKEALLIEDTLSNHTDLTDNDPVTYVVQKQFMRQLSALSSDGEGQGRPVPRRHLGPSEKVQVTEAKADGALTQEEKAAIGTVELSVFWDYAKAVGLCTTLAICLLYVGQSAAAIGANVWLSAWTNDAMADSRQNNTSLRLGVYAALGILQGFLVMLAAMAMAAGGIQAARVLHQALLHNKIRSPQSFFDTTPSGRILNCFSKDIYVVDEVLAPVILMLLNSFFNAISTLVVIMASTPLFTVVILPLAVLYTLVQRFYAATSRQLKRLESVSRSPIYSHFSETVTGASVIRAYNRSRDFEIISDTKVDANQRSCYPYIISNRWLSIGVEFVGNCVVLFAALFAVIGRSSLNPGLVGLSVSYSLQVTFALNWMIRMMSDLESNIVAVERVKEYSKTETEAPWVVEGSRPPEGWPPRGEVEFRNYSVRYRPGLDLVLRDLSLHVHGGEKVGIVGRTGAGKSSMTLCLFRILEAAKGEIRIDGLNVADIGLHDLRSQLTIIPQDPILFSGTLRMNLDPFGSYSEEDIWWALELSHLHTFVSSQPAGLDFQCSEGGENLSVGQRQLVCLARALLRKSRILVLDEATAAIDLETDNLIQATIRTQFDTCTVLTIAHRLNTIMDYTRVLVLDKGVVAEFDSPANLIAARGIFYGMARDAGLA

Compound: CCOC(=O)Nc1ccc(NCc2ccc(F)cc2)nc1N [FLUPIRTINE]
IC50 [1]: > 133 µM | IC50 [2]: > 133 µM | IC50 [3]: > 133 µM | AUC at 24 h [16]: 20 µM·h | concentration at 24 h [17]: 832 nM | Ratio [18]: 0.023

Compound: C#C[C@]1(O)CC[C@H]2[C@@H]3CCC4=Cc5oncc5C[C@]4(C)[C@H]3CC[C@@]21C [DANAZOL]
IC50 (Bile salt export pump): 18.7 µM | IC50 [1]: > 133 µM | IC50 [2]: > 133 µM | IC50 [3]: > 133 µM | AUC at 12 h [19]: 5.48 µM·h | concentration at 12 h [20]: 457 nM | Ratio [21]: 0.024

Compound: CCCCc1nc(Cl)c(CO)n1Cc1ccc(-c2ccccc2-c2nnn[n-]2)cc1.[K+] [LOSARTAN POTASSIUM]
IC50 (Bile salt export pump): 8.53 µM | IC50 [2]: > 133 µM | IC50 [3]: 34.1 µM | AUC at 24 h [22]: 2.42 µM·h | concentration at 24 h [23]: 101 nM | Ratio (Homo sapiens [24]): 0.012 | Ratio (Homo sapiens [25]): 0.003 | AUC at 24 h [26]: 2.42 µM·h | concentration at 24 h [27]: 101 nM | Ratio (Homo sapiens [28]): 0.012 | Ratio (Homo sapiens [29]): 0.003

Now from value to compound, other results behind:

IC50 [1]: 11.3 µM | IC50 [2]: 84 µM | IC50 [3]: 95 µM | AUC at 24 h [4]: 0.561 µM·h | concentration at 24 h [5]: 23 nM | Ratio (Homo sapiens [7]): 0.002 | Ratio (Homo sapiens [8]): 0 | Ratio (Homo sapiens [9]): 0
Compound: CO[C@H]1C[C@@H]2CC[C@@H](C)[C@@](O)(O2)C(=O)C(=O)N2CCCC[C@H]2C(=O)O[C@H]([C@H](C)C[C@@H]2CC[C@@H](OCCO)[C@H](OC)C2)CC(=O)[C@H](C)/C=C(\C)[C@@H](O)[C@@H](OC)C(=O)[C@H](C)C[C@H](C)/C=C/C=C/C=C/1C [EVEROLIMUS]
IC50 (Bile salt export pump): 2 µM | Ratio (Homo sapiens [6]): 0.012

IC50 [1]: 84.4 µM | IC50 [2]: 45.8 µM | IC50 [3]: 6.5 µM | AUC at 24 h [10]: 20 µM·h | concentration at 24 h [11]: 835 nM | Ratio [13]: 0.01 | Ratio [14]: 0.018 | Ratio [15]: 0.128
Compound: CC(/C=C1\SC(=S)N(CC(=O)O)C1=O)=C\c1ccccc1
IC50 (Bile salt export pump): 36.8 µM | Ratio [12]: 0.01

IC50 [1]: > 133 µM | IC50 [2]: > 133 µM | AUC at 24 h [30]: 5.38 µM·h
Compound: COc1cc2ncnc(Nc3ccc(F)c(Cl)c3)c2cc1OCCCN1CCOCC1 [GEFITINIB]
